From US20210230213A1, “ARAMCHOL SALTS” (GALMED RESEARCH AND DEVELOPMENT LTD., priority 2013, published 2021)
Converted amounts (≈) assume the structure as drawn. Counter-ions that a name gives are not always drawn. Like-named read-outs stand apart in the source and are kept apart here. Each block holds one compound with its values, some of them ahead of it.

Experiments:
[1] = Dynamic Vapour Sorption (DVS); format: physicochemical
Description: The samples was weighed in a glass pan, typically 20-30 mg, and equilibrated at 0% relative humidity (RH). After the material had dried, the RH was increased with 10% per step for 1 hour per increment, ending at […].
The software used for data collection was DVSWin v3.01 No Video. Data analysis was performed using DVS Standard Analysis Suite v6.3.0 (Standard).
After completion of sorption cycle, the material was dried. XRPD was performed before and after DVS.

[2] = Fill weight of size 00 HPMC capsule; format: physicochemical; settings: hard HPMC capsule size 00, filled as is without tapping
Description: Aramchol (free acid), and the three salts were filled as are, into hard HPMC (Hypromellose; Capsule size 00 (CapsCanada, ON, Canada) without taping, fill weight is presented in table 9.

[3] = In vivo permeability / PK after intrajejunal administration in cannulated rats (Example 7); set-up: species or system male Wistar rats; settings: rat; for Cmax: 100 mg/kg (based on free acid) in PBS 30 mg/mL, plasma Aramchol (free acid); for Tmax: median
Description: An in vivo permeability study of Aramchol salts was performed in male Wistar rats cannulated in the jugular vein and in the jejunum. Intestinal cannulation was performed in order to bypass protonation of Aramchol salts in acidic gastric pH. Aramchol salts solubilized in PBS (30 mg/mL) were administered to rats intestine (jejunum) in a dose of 100 mg/kg (based on free acid), via a cannula inserted into the proximal side of the jejunum. A suspension of Aramchol free acid (in PBS, 30 mg/mL) was administered via the same route and was used as control. Blood samples were withdrawn via a cannula inserted into jugular vein at pre-determined time points (pre-dose, 1 hr, 2 hr, 4 hr, 8 hr, 12 hr, 24 hr post dose). Plasma concentrations of Aramchol (free acid) were measured using a liquid chromatography-tandem mass spectrometry (LC-MS-MS) method by Analyst Bioanalytical Laboratories, Israel. All PK parameters were calculated using non-compartmental analysis. Only those plasma concentrations equal to or greater than the lower limit of quantitation (LOQ) (48.66 ng/mL) were used in the analysis. Plasma concentrations <LOQ that occurred from pre-dose to the first concentration ≥LOQ were treated as 0. Actual sampling times were used for all pharmacokinetic analyses. The following PK parameters were calculated: maximum plasma concentration (Cmax), time to Cmax (Tmax), area under the plasma concentration-time curve from time of administration until the last plasma concentration (AUC0-4), AUC/dose, elimination half-life (t½). Cmax and Tmax were taken directly from the data. Area under the curve from zero to the final sample with a concentration ≥LOQ. AUC0-4 was calculated using the linear trapezoidal method.

[4] = Solubility of Aramchol (free acid) in aqueous media; format: physicochemical
Bulk and tapped density = format: physicochemical
Description: Measurements of tapped and bulk densities are used to predict the flow properties and compressibility of powders. These two properties are important for manufacture of solid dosage formulations, such as tablets and capsules. Compounds with low values of tapped and bulk densities may be subject to difficulties in tablet compression, and therefore may require additional processing for improving flow properties. […] Therefore, to improve flow properties a wet granulation process is used prior to tablet compression.

[5] = Stability of Aramchol free acid; format: physicochemical; settings: 6 months 40° C./75% RH; 12 months 25° C./60% RH; 30° C./65% RH
Description: For Aramchol free acid, 6 months stability data have been generated at 40° C./75% relative humidity and for 12 months at real time 25° C./60% relative humidity and also at the intermediate conditions of 30° C./65% relative humidity.

[6] = Saturated solubility in buffer solutions and bio-relevant media at 37° C. (Example 6); format: physicochemical; settings: for solubility at 24 h / solubility at 30 min: thermodynamic from solid
in vivo = settings: dog, in vivo
Description: Capsules containing 100 mg of Aramchol were dosed to dogs as either the free acid or the meglumine salt.
The complete data-set across all animals and time-points for each dose form (free acid or meglumine salt) were fit to single compartment PK models with first order rate of absorption Ka (h−1) and elimination parameterised by CL and V (rate of elimination=CL/V, h−1). For the meglumine salt group, the first dose data for M5 was removed.
Capsules containing 100 mg of Aramchol were dosed to dogs as either the free acid or the meglumine salt BID. […] A clinical study that investigated the plasma concentration of Aramchol after oral dosing of 300 mg BID at steady state was conducted in 16 healthy volunteers.

[7] = Clinical study, plasma Aramchol at steady state after 300 mg BID; format: in vivo, humans; settings: human, po
[8] = Twice daily administration for 10 days of Aramchol and Aramchol meglumine in humans (Example 9); format: in vivo; settings: free acid 300 mg, meglumine salt 383 mg
Description: 300 mg aramchol free acid were administered to human subjects twice daily, and 383 mg aramchol meglumine salt were administered to human subjects twice daily, as detailed in FIG. 13.

[9] = Aqueous solubility at 20° C., shake-flask, stepwise water addition (Example 2); format: physicochemical; settings: for solubility: water, 20 °C, thermodynamic from solid, 20° C.
Description: The Aramchol salts of the present invention were further assessed for their solubility in water. […] 5 mg of each salt was weighed. Water was added stepwise until a clear solution was obtained (Table 2, solubility in water). The pH of each solution was measured (Table 2, pH after solubility).

physchem = settings: 50 °C, organic solvent or mixture
[10] = RH raised from 0% in 10% steps to 95% RH, stepwise, reversible
[11] = 100 mg/kg, mean ± standard error
[12] = water, Aramchol free acid and base 1:1, 50° C.
[13] = Demi-Water (pH 7.8), 24 h, 37° C.
[14] = Phosphate buffer pH 7.0, 24 h, 37° C.
[15] = FaSSIF (pH 6.5), 30 min, 37° C.
[16] = FeSSIF (pH 5.0), 30 min, 37° C.
[17] = male, Wistar, plasma, 100 mg/kg, mean ± standard error
[18] = male, Wistar, plasma, 100 mg/kg, mean ± standard error, read-out: AUC 0-t
[19] = male, Wistar, plasma, 100 mg/kg, read-out: Tmax
[20] = male, Wistar, mean ± standard error, read-out: Cmax

Compound: 2-diethylamino-ethanol
Mass uptake (DVS) [1]: 12.1% (stepwise; reversible)
salt remains in solution after cooling to 20° C.: yes
Dissolved (50 in g in 1) at 50° C. (50° C.): Yes

Compound: 3β-arachidylamido-7α,12α-dihydroxy-5β-cholan-24-oic acid lysine salt [L-Lysine]
Mass uptake (DVS) [1, 10]: 23.1% (stepwise, reversible)
fill weight of one 00 size capsule [2]: 0.33 gram
Cmax ([3]; mean ± standard error): 7294.2 ± 5463.0 (5) ng/mL
AUC(0-t) [3, 11]: 26460.3 ± 9415.5 (5) hr × ng/mL
AUC/dose [3, 11]: 270.0 ± 99.0 (5) hr × ng × kg/mL × mg
t1/2 [3, 11]: 5.2 ± 1.0 (5) hr
Tmax ([3]; 100 mg/kg): 2.0 (5) [2-4] hr
Dissolved (50 in g in 1) at 50° C. [12]: No

solubility ([4]; FeSSIF, pH 5, fessif, read-out: max solubility in FeSSIF): 660 µg/mL (≈ 940 µM)
solubility ([4]; aqueous buffer, buffer pH 6.0, read-out: solubility in buffer at pH 6.0): < 1 µg/mL
Bulk density (Bulk and tapped density): 0.15 g/mL
Tapped density (Bulk and tapped density): 0.17 g/mL
fill weight of one 00 size capsule [2]: 0.15 gram
stability [5]: no significant changes to any parameters
solubility ([6]; Acetate buffer pH 4.5, 24 h, 37° C.): Not soluble
solubility [6, 13]: Not soluble
solubility ([6]; HCl buffer pH 1.2, 24 h, 37° C.): Not soluble
solubility [6, 14]: Not soluble
solubility ([6]; Saline pH 5.5, 24 h, 37° C.): Not soluble
solubility at 24 h ([6]; phosphate buffer, pH 6.5, 24 h): < 1 µg/mL
solubility at 30 min [6, 15]: 50 µg/mL (≈ 71.2 µM)
solubility at 24 h ([6]; FaSSIF (pH 6.5), 24 h, 37° C.): 130 µg/mL (≈ 185 µM)
solubility at 30 min [6, 16]: 660 µg/mL (≈ 940 µM)
solubility at 24 h ([6]; FeSSIF (pH 5.0), 24 h, 37° C.): 310 µg/mL (≈ 442 µM)
Half-life [3, 17]: 4.5 h
AUC(0-t) [3, 18]: 12.1 ± 3.63 µg·h/mL
Tmax [3, 19]: 4 h
Cmax [3, 20]: 1360 ± 359 ng/mL
AUC/dose [3, 11]: 124.2 ± 38.9 (5) hr × ng × kg/mL × mg
AUC0-12 h/AUCinf (in vivo): 0.97
Ka (in vivo): 0.234 h⁻¹
V (in vivo): 16893
clearance (in vivo): 6.82 mL/min
AUC (in vivo; 100 mg): 901 µg·h/mL
AUC(0-inf) (in vivo; AUCinf D1): 241 µg·h/mL
AUC(0-inf) (in vivo; AUCinf from day 11 onwards): 1130 µg·h/mL
Half-life (in vivo; po, 100 mg, Half-life): 25.9 h
AUC [7]: 114 µg·h/mL
AUCss 0-12 h ([8]; BID for 10 days): 53 µg·h/mL
Cavg ([8]; BID for 10 days): 4154 ng/mL
AUC ([8]; human, blood, BID): 53 µg·h/mL
Compound: CCCCCCCCCCCCCCCCCCCC(=O)N[C@H]1CCC2(C)C(CC(O)C3C2C[C@H](O)C2(C)C(C(C)CCC(=O)O)CCC32)C1 (stereo in doubt) [Aramchol (free acid), 3β-arachidylamido-7α,12α-dihydroxy-5β-cholan-24-oic acid, reference compound]

Compound: CCCCCCCCCCCCCCCCCCCC(=O)NC1CCC2(C)C(C1)CC(O)C1C2CC(O)C2(C)C(C(C)CCC(=O)O)CCC12.N (stereo not drawn) [Ammonia]
Mass uptake (DVS) [1]: 5.4% (stepwise; reversible)
Dissolved (50 in g in 1) at 50° C.: No
salt remains in solution after cooling to 20° C.: no

Compound: c1ccc(CNCCNCc2ccccc2)cc1 [Benzathine]
Dissolved (50 in g in 1) at 50° C. [12]: No

Compound: CN(C)CCO [Deanol]
Mass uptake (DVS) [1, 10]: 17.3% (stepwise; reversible)
Dissolved (50 in g in 1) at 50° C. [12]: Yes
salt remains in solution after cooling to 20° C. (water, cooled to 20° C.): yes

Compound: CCNCC [Diethylamine]
Mass uptake (DVS) [1, 10]: 14.8% (stepwise; reversible)
Dissolved (50 in g in 1) at 50° C. [12]: Yes
salt remains in solution after cooling to 20° C. (water, cooled to 20° C.): no

Compound: NCCO [Ethanolamine]
Mass uptake (DVS) [1, 10]: 13.2% (stepwise; reversible)

pH of solution ([9]; after solubility test in water, XRPD: Crystalline): 8
solubility ([9]; XRPD: Crystalline): 32000 to 95000 µg/mL
solubility ([9]; XRPD: Poorly crystalline): < 11000 µg/mL
Mass uptake (DVS) [1, 10]: 9.4% (stepwise; reversible)
fill weight of one 00 size capsule [2]: 0.31 gram
solubility [6, 13]: Gel
solubility ([6]; Demi-Water (pH 7.8), 24 h, 37° C., listed as tromethamine salt): turned into gets
solubility [6, 15]: Gel
solubility ([6]; FaSSIF (pH 6.5), 24 h, 37° C.): Gel
solubility [6, 16]: Gel
solubility ([6]; FeSSIF (pH 5.0), 24 h, 37° C.): Gel
solubility ([6]; PBS pH 7.4, 24 h, 37° C.): Gel
solubility ([6]; Phosphate buffer pH 6.5, 30 min, 37° C.): Gel
solubility ([6]; Phosphate buffer pH 6.5, 24 h, 37° C.): Gel
solubility [6, 14]: Gel
solubility at 30 min ([6]; aqueous buffer, PBS pH 7.4, 30 min, 37° C.): 23000 µg/mL
solubility at 30 min ([6]; aqueous buffer, Phosphate buffer pH 7.0, 30 min, 37° C.): 29400 µg/mL
solubility at 30 min ([6]; saline or isotonic, Saline pH 5.5, 30 min, 37° C.): 30 µg/mL
solubility at 30 min ([6]; simulated gastric fluid, HCl buffer pH 1.2, 30 min, 37° C.): 20 µg/mL
solubility at 24 h ([6]; simulated gastric fluid, HCl buffer pH 1.2, 24 h, 37° C.): 290 µg/mL
solubility at 30 min ([6]; Demi-Water (pH 7.8), 30 min, 37° C.): 45000 µg/mL
Half-life [3, 17]: 6.5 ± 2.4 h
AUC(0-t) [3, 18]: 18.6 ± 2.28 µg·h/mL
Tmax [3, 19]: 2 h
Cmax [3, 20]: 2250 ± 208 ng/mL
AUC/dose [3, 11]: 184.7 ± 22.7 (4) hr × ng × kg/mL × mg
Dissolved (50 in g in 1) at 50° C. [12]: No
solubility at 2 h (physchem): > 50000 µg/mL
Compound: CCCCCCCCCCCCCCCCCCCC(=O)N[C@H]1CC[C@@]2(C)[C@@H](C1)C[C@@H](O)[C@@H]1[C@@H]2C[C@H](O)[C@]2(C)[C@@H]([C@H](C)CCC(=O)O)CC[C@@H]12 [Tromethamine, 3β-arachidylamido-7α,12α-dihydroxy-5β-cholan-24-oic acid tromethamine salt]

Compound: Choline
Dissolved (50 in g in 1) at 50° C.: Yes
salt remains in solution after cooling to 20° C.: yes

Compound: Diethanolamine
Mass uptake (DVS) [1, 10]: 6.9% (stepwise; reversible)
Dissolved (50 in g in 1) at 50° C. [12]: Yes
salt remains in solution after cooling to 20° C. (water, cooled to 20° C.): yes

Compound: L-Arginine
Dissolved (50 in g in 1) at 50° C. [12]: Yes
salt remains in solution after cooling to 20° C. (water, cooled to 20° C.): no
